From EP0317544A1, “Method of modifying the micro environment of an enzyme by cross-linking the peptidic molecules, use thereof for making enzymatic reactors requiring the regeneration of the cofactor” (priority 1987, dated 1989)

What was measured:
[1] = molecular target: alcool déshydrogénase (ADH), préparation ADH-LYS (polylysine, forme soluble) (Saccharomyces cerevisiae, UniProt P00330); assay: Two-substrate ordered kinetics of alcohol dehydrogenase, soluble polylysine-grafted preparation; format: biochemical; conditions: compared with the other soluble preparations
From the text: (§1) L'alcool déshydrogénase étant un enzyme suivant une réaction ordonnée à deux substrats, sa cinétique répond à l'équation : [formula] Ka et Kb sont les constantes de type Michaelis-Menten correspondant à la dissociation du complexe ternaire du NAD⁺ et de l'éthanol alors que Kia représente la constante de dissociation du complexe binaire ADH-NAD⁺ (Wratten et Cleland, 1963, Biochemistry 2, 935-941).
(§2) Les valeurs des constantes pour les diverses préparations sont donnés au tableau 3. Nous ne pouvons pas ici interpréter chacune de ces valeurs et nous nous limiterons aux variations les plus importantes. En ce qui concerne le Kia, rappelons que plus le Kia est petit, plus l'affinité de l'enzyme pour la fixation de son premier substrat, le NAD⁺ est grande. Nous remarquons peu de variation pour les préparations solubles excepté pour la polylysine. […] Il faut aussi tenir compte de la charge positive de la lysine qui pourrait inhiber la diffusion du NAD⁺. Dans le cas de Ka et Kb, la fixation des peptides sur l'enzyme augmente les constantes, c'est-à-dire diminue l'affinité de fixation de ces substrats sur les complexes quaternaires de l'enzyme. Dans le cas des enzymes incorporés dans le gel, on constate aussi certains changements mais il faut en plus de l'effet du micro-environnement tenir compte des effets de diffusion. […]

[2] = molecular target: alcool déshydrogénase (ADH), préparation ADH-LYS-PAA (poly-lysine-résine, forme immobilisée) (Saccharomyces cerevisiae, UniProt P00330); assay: Two-substrate ordered kinetics of alcohol dehydrogenase, polylysine-grafted preparation copolymerised in polyacrylamide gel; format: biochemical; conditions: enzyme incorporated in polyacrylamide gel; apparent value, diffusion effects
From the text: as §1, §2

Chain of alcool déshydrogénase (ADH), préparation ADH-LYS (polylysine, forme soluble) (P00330 2-348): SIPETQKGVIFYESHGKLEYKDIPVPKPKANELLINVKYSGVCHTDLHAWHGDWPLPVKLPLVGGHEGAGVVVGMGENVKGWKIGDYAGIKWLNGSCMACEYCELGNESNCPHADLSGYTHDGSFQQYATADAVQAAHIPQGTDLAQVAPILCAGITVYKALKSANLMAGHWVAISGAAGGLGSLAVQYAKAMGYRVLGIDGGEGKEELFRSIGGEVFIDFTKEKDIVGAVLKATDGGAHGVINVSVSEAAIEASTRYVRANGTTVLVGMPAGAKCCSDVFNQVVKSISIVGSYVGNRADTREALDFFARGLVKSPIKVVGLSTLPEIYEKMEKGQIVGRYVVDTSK
Chain of alcool déshydrogénase (ADH), préparation ADH-LYS-PAA (poly-lysine-résine, forme immobilisée) (P00330 2-348): as above

NC(=O)c1ccc[n+]([C@@H]2O[C@H](COP(=O)([O-])OP(=O)(O)OC[C@H]3O[C@@H](n4cnc5c(N)ncnc54)[C@H](O)[C@@H]3O)[C@@H](O)[C@H]2O)c1 [NAD⁺]
Kia (constante de dissociation du complexe binaire ADH-NAD⁺) [1]: baisse d'affinité | Kia (constante de dissociation du complexe binaire ADH-NAD⁺) [2]: très faible
